Measurements as given in patent publication US20050053612A1, “Nucleotide regulation of immune responses” (priority 2003, published 2005).
“Also recorded” adds a separate entry of the source.

Assays:
XS106 cells [1] = test: Cytokine content of supernatants by ELISA; type: cell-based, mouse
BALB/c mice = test: Contact hypersensitivity (CHS) assay, DNFB, ear swelling; conditions: mouse, in vivo
Langerhans cells = test: HDK-1 assay: antigen presentation by Langerhans cells, IFNγ by ELISA; type: cell-based, BALB/c mice
XS106 cells [2] = test: FACS analysis of I-A, CD80 and CD86 expression; type: cell-based, mouse; conditions: for effect on ATPγS-enhanced CD80 expression: pre-incubated with 300 μM oATP for 2 hours, then GM-CSF/LPS and ATPγS
[3] = tested on: group A streptococcus (GAS); parameters: species or system Streptococcus pyogenes; conditions: in vivo
CAF1 mice = test: Tumor vaccine: delayed-type hypersensitivity to tumor-associated antigens (TAA), footpad swelling; conditions: mouse, in vivo

Nc1ncnc2c1ncn2[C@@H]1O[C@H](COP(=O)(O)OP(=O)(O)OP(=O)(O)O)[C@@H](O)[C@H]1O [ATP]
secretion of IL-1β (XS106 cells [1]; ATP, significant at 10^−3 M and 10^−4 M, NS at 10^−5 M and 10^−6 M): greatly augmented secretion | cell viability (XS 106A cell): No effect on viability

Nc1ncnc2c1ncn2[C@@H]1O[C@H](COP(=O)(O)OP(=O)(O)OP(O)(O)=S)[C@@H](O)[C@H]1O [ATPγS]
ear swelling (contact hypersensitivity response) (BALB/c mice): significantly augmented; also recorded: greatest ear swelling; also recorded: increased response upon challenge | ear swelling (contact hypersensitivity response), ATPγS injected at a site distant from that of immunization (BALB/c mice): no effect on the response | ear swelling, ATPγS only (not immunized with DNFB) (BALB/c mice): least ear swelling | IFNγ release by HDK-1 cells (presentation of KLH by LCs) (Langerhans cells): dose-dependent increase; also recorded: augmented the ability of LCs to present KLH | IFNγ, LCs incubated with ATPγS in the absence of KLH (Langerhans cells): only background levels; also recorded: did not significantly change the background response | concentration at which the IFNγ response begins to decrease (Langerhans cells): greater than 10^−6 molar | release of IL-1β (XS106 cells [1]): significantly increased; also recorded: significant increase | release of IL-10 (XS106 cells [1]): decreasing release; also recorded: decrease | release of IL-12 (XS106 cells [1]): significantly increased; also recorded: significant increase | expression of CD80 (XS106 cells [2]): enhanced; also recorded: enhances expression | expression of CD86 (XS106 cells [2]): enhanced; also recorded: enhances expression | expression of I-A (XS106 cells [2]): enhanced; also recorded: enhances expression | lesion size vs mice immunized with killed GAS alone [3]: much smaller lesions | mean areas of the lesions [3]: 2.80±1.11 mm^2 | delayed-type hypersensitivity (DTH) response, footpad swelling (CAF1 mice): significantly enhanced; also recorded: significantly greater DTH response | concentrations that induce apoptosis (XS106): greater than 10^−6 molar

Nc1ncnc2c1ncn2[C@@H](C=O)O[C@@H](C=O)COP(=O)(O)OP(=O)(O)OP(=O)(O)O [oxidized ATP, reference compound]
effect on ATPγS-induced IL-1β secretion (XS106 cells [1]; data not shown): significantly inhibited | effect on ATPγS-enhanced CD80 expression (XS106 cells [2]): inhibits the effect of ATPγS on CD80 expression | effect on ATPγS-enhanced CD80 expression (XS106 cells [2]; listed as oATP): inhibited
